The values that follow are results of earlier work, collected in US10948221B1 (priority 2020, dated 2021).

The series concerns rat. The settings on record: in vivo.
In the case of `O=N[O-].[Ag+]` [AgNO2], the “LD50 (oral-rat; mg/kg)” value was “Toxic”. As for `CN.Cl` [CH3NH3Cl], the “LD50 (oral-rat; mg/kg)” value is 1600 mg/kg. Take `N#C[O-].[K+]` [KCNO]: the “LD50 (oral-rat; mg/kg)” value is listed as 841 mg/kg. With `[K+].[O-][Cl+2]([O-])[O-]` [KClO3], the “LD50 (oral-rat; mg/kg)” value is 1870 mg/kg. Take `[K+].[O-][Cl+3]([O-])([O-])[O-]` [KClO4]: the “LD50 (oral-rat; mg/kg)” value was 100 mg/kg. On to `O=N[O-].[K+]` [KNO2], for which the “LD50 (oral-rat; mg/kg)” value is 250 mg/kg. On to `[Na+].[O-][Cl+2]([O-])[O-]` [NaClO3], for which the “LD50 (oral-rat; mg/kg)” value is listed as 1200 mg/kg. Regarding `[Na+].[O-][Cl+3]([O-])([O-])[O-]` [NaClO4], the “LD50 (oral-rat; mg/kg)” value is listed as 2100 mg/kg. For the compound `[F-].[Na+]` [NaF], the “LD50 (oral-rat; mg/kg)” value is on record as 52 mg/kg. As to `O=N[O-].[Na+]` [NaNO2], the “LD50 (oral-rat; mg/kg)” value is given as 180 mg/kg. Turning to AgNO3, the “LD50 (oral-rat; mg/kg)” value was “Toxic”. BaCl2•2H2O: the “LD50 (oral-rat; mg/kg)” value is given as 118 mg/kg. In the case of K2SO4 [Solute K2SO4], the “LD50 (oral-rat; mg/kg)” value is on record as 6600 mg/kg. With KIO3, the “LD50 (oral-rat; mg/kg)” value is given as 136 mg/kg. Consider KMnO4, for which the “LD50 (oral-rat; mg/kg)” value was 1090 mg/kg.

For the compound MgSO4•7H2O, the “LD50 (oral-rat; mg/kg)” value was 2840 mg/kg. As to NH4NO3, the “LD50 (oral-rat; mg/kg)” value is given as 2217 mg/kg.

Regarding Na3PO4, the “LD50 (oral-rat; mg/kg)” value is recorded as 7400 mg/kg.
